{
  "source": "the NIST ThermoML archive (doi:10.1016/j.fluid.2013.05.008)",
  "key": {"[1]": {"experiment": "Molar enthalpy of transition or fusion", "conditions": "Crystal; DSC"}, "[2]": {"conditions": "Crystal; DTA"}},
  "note": "± gives the expanded uncertainty stated by the source.",
  "data": [
    {"smiles": "CCc1ccc(CCOc2ccc(CC3SC(=O)NC3=O)cc2)nc1.Cl", "note": "(configuration not stated)", "values": [
      {"measurement": "Molar enthalpy of transition or fusion", "setting": "[1]", "result": "12 ± 0.335", "unit": "kcal/mol"},
      {"measurement": "Normal melting temperature", "setting": "[2]", "result": "195.62 ± 0.5", "unit": "°C"}
    ]}
  ]
}
